In patent US6737383B1, “Herbicidal oxadiazolidines” (priority 1999, dated 2004):

Tests used:
[1] = system: blackgrass; experiment: Test B pre/postemergence blackgrass; assay type: in vivo, Alopecurus myosuroides
Outline: (§1)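 Response is a visual 0-to-10 score relative to untreated plants, where 0 means no effect and 10 means complete control, taken twelve to sixteen days after application. Treatments went onto soil at planting and onto foliage of 1- to 4-leaf plants, using a surfactant-containing non-phytotoxic solvent.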

[2] = system: cocklebur; experiment: Test B pre/postemergence cocklebur; assay type: in vivo, Xanthium strumarium
Outline: as §1

[3] = system: corn; experiment: Test B pre/postemergence corn; assay type: in vivo, Zea mays
Outline: as §1

[4] = system: crabgrass; experiment: Test B pre/postemergence crabgrass; assay type: in vivo, Digitaria sanguinalis
Outline: as §1

[5] = system: giant foxtail; experiment: Test B pre/postemergence giant foxtail; assay type: in vivo, Setaria faberii
Outline: as §1

[6] = system: morningglory; experiment: Test B pre/postemergence morningglory; assay type: in vivo, Ipomoea hederacea
Outline: as §1

[7] = system: pigweed; experiment: Test B pre/postemergence pigweed; assay type: in vivo, Amaranthus retroflexus
Outline: as §1

[8] = system: rape; experiment: Test B pre/postemergence rape; assay type: in vivo, Brassica napus
Outline: as §1

[9] = system: soybean; experiment: Test B pre/postemergence soybean; assay type: in vivo, Glycine max
Outline: as §1

[10] = system: sugar beet; experiment: Test B pre/postemergence sugar beet; assay type: in vivo, Beta vulgaris
Outline: as §1

[11] = system: velvetleaf; experiment: Test B pre/postemergence velvetleaf; assay type: in vivo, Abutilon theophrasti
Outline: as §1

[12] = system: wheat; experiment: Test B pre/postemergence wheat; assay type: in vivo, Triticum aestivum
Outline: as §1

[13] = system: purple nutsedge; experiment: Test B pre/postemergence purple nutsedge; assay type: in vivo, Cyperus rotundus
Outline: as §1

[14] = system: rice; experiment: Test B flood test rice; assay type: in vivo, Oryza sativa
Outline: (§2)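 Each value is a visual injury score relative to controls, with 10 meaning complete control and 0 no effect. Evaluation took place twelve to sixteen days after the 2-leaf-stage plants were treated and kept in the greenhouse.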

[15] = system: smallflower flatsedge; experiment: Test B flood test smallflower flatsedge; assay type: in vivo, Cyperus difformis
Outline: as §2

[16] = system: duck salad; experiment: Test B flood test duck salad; assay type: in vivo, Heteranthera limosa
Outline: as §2

[17] = Preemergence, Rate 62 g/ha, scale of 0 to 10 where 0 is no effect and 10 is complete control
[18] = Preemergence, Rate 250 g/ha, scale of 0 to 10 where 0 is no effect and 10 is complete control
[19] = Preemergence, Rate 500 g/ha, scale of 0 to 10 where 0 is no effect and 10 is complete control
[20] = Rate 62 g/ha, Postemergence, scale of 0 to 10 where 0 is no effect and 10 is complete control
[21] = Rate 125 g/ha, Postemergence, scale 0 to 10
[22] = Rate 125 g/ha, Preemergence, scale of 0 to 10 where 0 is no effect and 10 is complete control
[23] = Rate 500 g/ha, Postemergence, scale 0 to 10
[24] = Rate 62 g/ha, headed Pre-emergence (flood test species), scale 0 to 10 (0 no effect, 10 complete control)
[25] = Rate 125 g/ha, Pre-emergence, flood test species, scale 0 to 10 where 0 is no effect and 10 is complete control
[26] = Rate 250 g/ha, Pre-emergence, flood-test species, scale 0 to 10, 0 is no effect, 10 is complete control
[27] = Rate 500 g/ha, Pre-emergence, flood test species, scale 0 to 10 (0 no effect, 10 complete control)

CC(C)N(C(=O)n1oc(=O)n(CC(=O)C(C)(C)C)c1=O)c1ccc(F)cc1 [Compound 216]
8: Plant response rating (0 to 10; 0 is no effect, 10 is complete control), Blackgrass ([1]; Rate 250 g/ha, Postemergence) | Blackgrass plant response rating [1, 23] | Crabgrass plant response rating [4, 18] | Plant response rating, Crabgrass [4, 19] | Plant response rating, Redroot pigweed [7, 19]
3: Cocklebur plant response rating [2, 23] | Corn plant response rating [3, 23] | Crabgrass plant response rating [4, 22] | Morningglory plant response rating [6, 20] | Redroot pigweed plant response rating [7, 23] | Rape plant response rating [8, 23]
1: Soybean plant response rating [9, 20] | Soybean plant response rating [9, 21] | Plant response rating (0 to 10; 0 is no effect, 10 is complete control), Soybean ([9]; Rate 250 g/ha, Postemergence)
2: Blackgrass plant response rating [1, 22] | Plant response rating (0 to 10; 0 is no effect, 10 is complete control), Corn ([3]; Rate 250 g/ha, Postemergence) | Crabgrass plant response rating [4, 21] | Giant foxtail plant response rating [5, 21] | Redroot pigweed plant response rating [7, 18] | Plant response rating (0 to 10; 0 is no effect, 10 is complete control), Redroot pigweed ([7]; Rate 250 g/ha, Postemergence) | Soybean plant response rating [9, 23] | Sugarbeets plant response rating [10, 23]
4: Blackgrass plant response rating [1, 18] | Plant response rating, Blackgrass [1, 19] | Blackgrass plant response rating [1, 21] | Plant response rating (0 to 10; 0 is no effect, 10 is complete control), Crabgrass ([4]; Rate 250 g/ha, Postemergence) | Plant response rating (0 to 10; 0 is no effect, 10 is complete control), Giant foxtail ([5]; Rate 250 g/ha, Postemergence) | Morningglory plant response rating [6, 21]
6: Giant foxtail plant response rating [5, 22] | Giant foxtail plant response rating [5, 23]
0: Blackgrass plant response rating [1, 17] | Blackgrass plant response rating [1, 20] | Cocklebur plant response rating [2, 17] | Cocklebur plant response rating [2, 18] | Plant response rating, Cocklebur [2, 19] | Cocklebur plant response rating [2, 20] | Cocklebur plant response rating [2, 21] | Cocklebur plant response rating [2, 22] | Plant response rating (0 to 10; 0 is no effect, 10 is complete control), Cocklebur ([2]; Rate 250 g/ha, Postemergence) | Corn plant response rating [3, 17] | Corn plant response rating [3, 18] | Plant response rating, Corn [3, 19] | Corn plant response rating [3, 20] | Corn plant response rating [3, 21] | Corn plant response rating [3, 22] | Crabgrass plant response rating [4, 17] | Crabgrass plant response rating [4, 20] | Giant foxtail plant response rating [5, 17] | Giant foxtail plant response rating [5, 20] | Morningglory plant response rating [6, 17] | Morningglory plant response rating [6, 18] | Plant response rating, Morningglory [6, 19] | Morningglory plant response rating [6, 22] | Redroot pigweed plant response rating [7, 17] | Redroot pigweed plant response rating [7, 20] | Redroot pigweed plant response rating [7, 21] | Redroot pigweed plant response rating [7, 22] | Rape plant response rating [8, 17] | Rape plant response rating [8, 18] | Plant response rating, Rape [8, 19] | Rape plant response rating [8, 20] | Rape plant response rating [8, 21] | Rape plant response rating [8, 22] | Plant response rating (0 to 10; 0 is no effect, 10 is complete control), Rape ([8]; Rate 250 g/ha, Postemergence) | Soybean plant response rating [9, 17] | Soybean plant response rating [9, 18] | Plant response rating, Soybean [9, 19] | Soybean plant response rating [9, 22] | Sugarbeets plant response rating [10, 17] | Sugarbeets plant response rating [10, 18] | Plant response rating, Sugarbeets [10, 19] | Sugarbeets plant response rating [10, 20] | Sugarbeets plant response rating [10, 21] | Sugarbeets plant response rating [10, 22] | Plant response rating (0 to 10; 0 is no effect, 10 is complete control), Sugarbeets ([10]; Rate 250 g/ha, Postemergence) | Velvetleaf plant response rating [11, 17] | Velvetleaf plant response rating [11, 18] | Plant response rating, Velvetleaf [11, 19] | Velvetleaf plant response rating [11, 20] | Velvetleaf plant response rating [11, 21] | Velvetleaf plant response rating [11, 22] | Plant response rating (0 to 10; 0 is no effect, 10 is complete control), Velvetleaf ([11]; Rate 250 g/ha, Postemergence) | Wheat plant response rating [12, 17] | Wheat plant response rating [12, 18] | Plant response rating, Wheat [12, 19] | Wheat plant response rating [12, 20] | Wheat plant response rating [12, 21] | Wheat plant response rating [12, 22] | Plant response rating (0 to 10; 0 is no effect, 10 is complete control), Wheat ([12]; Rate 250 g/ha, Postemergence) | Nutsedge plant response rating [13, 17] | Nutsedge plant response rating [13, 18] | Plant response rating, Nutsedge [13, 19] | Nutsedge plant response rating [13, 20] | Nutsedge plant response rating [13, 21] | Nutsedge plant response rating [13, 22] | Plant response rating (0 to 10; 0 is no effect, 10 is complete control), Nutsedge ([13]; Rate 250 g/ha, Postemergence) | Nutsedge plant response rating [13, 23] | Rice plant response rating [14, 24] | Rice plant response rating [14, 25] | Rice plant response rating [14, 26] | Rice plant response rating [14, 27] | S. Flatsedge plant response rating [15, 24] | S. Flatsedge plant response rating [15, 25] | S. Flatsedge plant response rating [15, 26] | S. Flatsedge plant response rating [15, 27] | Ducksalad plant response rating [16, 24] | Ducksalad plant response rating [16, 25] | Ducksalad plant response rating [16, 26] | Ducksalad plant response rating [16, 27]
9: Plant response rating, Giant foxtail [5, 19]
10: Morningglory plant response rating [6, 23]
7: Crabgrass plant response rating [4, 23] | Giant foxtail plant response rating [5, 18] | Plant response rating (0 to 10; 0 is no effect, 10 is complete control), Morningglory ([6]; Rate 250 g/ha, Postemergence)
